Test results reported in patent publication US7888116B2, “Uses of notch receptors, notch ligands, and notch modulators in methods related to metabolic diseases” (The United States of America as represented by the …, priority 2005, dated 2011).
Entries after “also recorded” stand apart in the source; their conditions may differ.

How the values were obtained:
[1] = test system: RIN cells; test: [3H]thymidine uptake (β-cell proliferation) in RIN cells; format: cell-based, rat; settings: 8 h treatment
Protocol: (§1) Insulin assays and cell turnover studies. Insulin secretion assays were performed and intracellular insulin was extracted as described (Wang, Y. et al., J. Clin. Invest., 99:2883-2889 (1997)), followed by insulin quantification using an ELISA kit (Crystal Chem). Cells were treated for 8 h as indicated and pulsed with [^3H]thymidine (PerkinElmer Life Sciences) at 37° C., followed by lysis of the cells and [^3H] counting (He, et al., J Biol Chem, 278:27096-27104 (2003)).

[2] = test system: RIN 1046-38 β-cells; test: Insulin secretion and intracellular insulin in RIN cells (ELISA); format: cell-based, rat; settings: for insulin release, R-JAG and Ex-4 together vs either alone: 6 h time point; for total intracellular insulin: 6 h treatment; for insulin release into the medium: time course
Protocol: as §1

[3] = test system: C57/BL6 mouse islets; test: Immunoblotting for IRS2 and PDX-1 in C57/BL6 mouse islets treated for 8 h; format: cell-based; settings: for PDX-1 levels: islets
Protocol: (§2) Islet isolation, cell culture and treatments. Adult rat (Sprague-Dawley) and mouse (C57/BL6) islets were isolated by collagenase P digestion and cultured overnight in M199 medium (5 mM glucose). RIN 1046-38 β-cells were cultured as outlined previously (Wang, et al., Endocrinology, 142:1820-1827 (2001)). Isolated human islets came from David Harlan, Transplant Section, NIDDK. Ex-4, GLP-1, CCK (all used at concentrations previously shown to cause maximum insulin release), Ex and the γ-secretase inhibitor, L-685,458, were obtained from Bachem. H89 was from Calbiochem, insulin was from Sigma. The Jagged peptides, R-JAG […] (SEQ ID NO:1), JAG-1 […] (SEQ ID NO:2), and scrambled control peptide without agonist activity, sc-Jagged […] (Nickoloff, et al., Cell Death Differ, 9842-855 (2002)) (SEQ ID NO:3), were synthesised by New England Peptide Inc.
(§3) Cell extracts, immunoblotting and RT-PCR. Cytosolic and nuclear cell extracts were prepared using the NE-PER Nuclear and Cytoplasmic Extraction Reagents (Pierce) in accordance with the manufacturer's instructions. Whole cell extracts were isolated as described (Wang, et al., Endocrinology, 142:1820-1827 (2001)). Cell extracts were separated by Tris-glycine (10%, 4-12%) PAGE (Invitrogen) and immunoblofted as described (Wang, et al., Endocrinology, 142:1820-1827 (2001)) using the following antibodies: rabbit anti-Notch1 (1:5,000), rabbit anti-IRS2 (1:1,000), both from Upstate Biotechnology, rabbit N-terminal anti-PDX-1 (1:10,000, from Joel Habener (Stanojevic, et al., Endocrinology, 145:2918-2928 (2004)). Total RNA was extracted using Triazol (Invitrogen) according to the manufacturer's instructions. RT-PCR was performed using the Qiagen OneStep RT-PCR kit. See Table 2 for primer sequences and annealing temperatures. Each target gene was amplified over 35 cycles.

[4] = test system: Notch-1 (NICD); test: NICD in islet nuclei of wild-type and GLP-1R null mice after intraperitoneal treatment; format: in vivo, mouse; settings: fasted, 1 nmol/kg IP
Protocol: (§4) Animal Protocols. Wild-type and GLP-1R −/− mice (Scrocchi, L. A. et al. Nat. Med., 2:1254-1258 (1996)) were injected intraperitoneally with Ex-4 (1 nmol/kg) or glucose (1 g/kg) after overnight fast and their pancreata excised. Animal protocols were approved by the NIA Animal Care and Use Committee. RIN cells were permeabilized in Triton-X (0.1%) on ice and blocked for 1 h at room temperature in 3% BSA and 0.1% Tween in PBS. They were incubated overnight at 4° C. with the primary antibody, washed in PBS and incubated with fluorescent labelled secondary antibody for 1 h, washed and mounted with fluorescence mounting medium (Vector Laboratories). Mouse sections (FIG. 9) for indirect immunofluorescence were antigen-retrieved, processed in the same manner as the cells and stained with anti-Notch-1. Indirect immunofluorescent staining was imaged using a Zeiss LSM-410 inverted microscope. AlexaFluor antibodies (Molecular Probes; Eugene, Oreg.) were excited with the 488-nm line of a krypton-argon laser and recorded at the presence of emission filter BP515-565 nm. The microscope objective was a Zeiss 63×NA 1.4 oil immersion and the confocal pinhole was set to obtain spatial resolution of […] in the horizontal plane and […] in the axial dimension.

[5] = molecular target: T1, γ-secretase (Rattus norvegicus, UniProt P97887); test: γ-secretase activity assay (Notch ΔE-GVP / UAS-luciferase reporter) in RIN cells; format: cell-based; settings: for effect on Ex-4-activated γ-secretase cleavage / UAS promoter activation: RIN cells transfected with Notch ΔE-GVP
T1 construct: endogenous in cells; host or cells: RIN 1046-38 rat β-cells
Protocol: Transfections and Luciferase assays. The rat insulin-I promoter linked to the luciferase reporter plasmid pGL3 (Ins-1-luc) was obtained from Michael Freemark (Fleenor and Freemark, Endocrinology, 142:2805-2810 (2001)), and both the Notch ΔE-GVP plasmid and UAS responsive reporter gene construct MH100 were from Johan Lundkvist (Karlstrom, et al., J Biol Chem, 277:6763-6766 (2002)). For the insulin reporter gene assay, RIN cells in 35 mm dishes were co-transfected with 0.8 μg ins-1-luc plasmid and 0.7 μg of pCMV-β-galactosidase using 8 μl of Polyfect (Qiagen). For the γ-secretase activity assay RIN cells in 12 well plates were co-transfected with 30 ng of pCMV-β-galactosidase, 200 ng of MH100, 100 ng Notch ΔE-GVP plasmids for each well using Lipofectamine PLUS (Invitrogen). The transfected cells were allowed to recover for 24-48 h in medium with serum and subsequently incubated in insulin secretion assay buffer (for the insulin promoter assay) or in medium without serum (for the γ-secretase assay) with or without Ex-4 and inhibitors. Ins-1-luc and Notch ΔE-GVP activities were measured using assay system kits from Promega according to the manufacturer's instructions using a Berthord LB 9501 luminometer. The luciferase values were normalized to β-galactosidase measured using the luminometer for lysates from 35 mm dishes and an ELISA plate reader (Spectra Max Plus, Molecular Devices) for lysates from 12 well plates.

[6] = test system: RIN cells; test: RT-PCR and immunoblotting of whole RIN cell extracts (insulin, IRS2, PDX-1, Notch-1); format: cell-based, rat
Protocol: as §3, with “Each target gene was amplified over 35 cycles.” left out

[7] = test system: Rat islets; test: Rat islets: real time PCR and intracellular insulin after R-JAG; format: cell-based
Protocol: Rat islets (80) were pre-incubated for 2 periods of 30 min in the glucose-free buffer in a 37° C. humidified air incubator. […] At the end of the experiment, islets were centrifuged and any residual medium removed and stored −20° C. for quantification of insulin released. The pellet was suspended in ice cold acid-ethanol (500 μl) and homogenized. After centrifugation of the homogenate (1,400 g, 4° C.) the supernatant was collected for measurement of intracellular insulin using the Rat insulin ELISA kit from Crystal Chem. Inc. (Chicago, Ill.). The pellet was lysed with 0.2 ml formic acid and saved at […] for analysis of protein by the Bradford method (Bio-Rad Laboratories, Inc. Richmond, Calif.). A control condition with insulin secretion assay buffer containing just 6 mM glucose was used. Insulin values were normalized to protein content.
Reverse transcription. DNA-free RNA was isolated using the Triazol extraction method (Invitrogen; Carlsbad, Calif.) following the manufacturer's protocol. DNAse I treatment and inactivation, and reverse transcription reaction primed with random sequence oligonucleotides were performed using Ambion instruction manual and Cells-to-cDNA II kits components in the I-Cycler thermocycler from BioRad. As a control, a mock reverse transcription containing all RT reagents except the Reverse Transcriptase, which was substituted with water, was used.
Real Time PCR. Real time PCR reactions were performed using the ABI PRISM™ 7700 Sequence Detection Systems (Applied Biosystems; Valencia, Calif.) and the SYBER Green kit from Applied Biosystems. All PCR reactions were performed in triplicate using the SYBER Green master mix (12.5 μl) from Applied Biosystems, 1 μg of cDNA, 2.5 μl of each 0.5 μM primer and water for a 25 μl reaction. Cycling parameters for amplifications of target genes were (95° C. for 10 min, at 94° C. for 15 seconds, 60° C. for 1 min)×40 cycles. The target gene copy number in unknown samples was quantified by measuring the threshold cycle CT and by using the standard curve to determine the starting copy number. The β-actin gene was an endogenous control. Final results were expressed as n-fold differences relative to untreated controls.

[8] = test system: Notch-1 (NICD); test: NICD nuclear translocation in RIN cells (indirect immunofluorescence, immunoblot of nuclear extracts); format: cell-based, rat; settings: for effect on Ex-4-mediated translocation of NICD: H89 10 μM, L-685,458 pretreatment for 2 h
Protocol: as §2, §3
as §4, with “RIN” for “Animal Protocols. Wild-type and GLP-1R −/− mice (Scrocchi, L. A. et al. Nat. Med., 2:1254-1258 (1996)) were injected intraperitoneally with Ex-4 (1 nmol/kg) or glucose (1 g/kg) after overnight fast and their pancreata excised. Animal protocols were approved by the NIA Animal Care and Use Committee. RIN”

“scrambled Jagged peptide: scrambled control peptide without agonist activity, RCGPDCFDNYGRYKYCF (SEQ ID NO:3)” was tested, and the “[3H]thymidine uptake, increase above glucose treatment” value [1] was “no effect”.

Exendin-4 [Ex-4] was tested, and the “insulin release, R-JAG and Ex-4 together vs either alone” value ([2]; RIN cells) was “greater that either alone”, the total intracellular insulin ([2]; RIN cells) was “increased” and the “insulin release into the medium” value ([2]; RIN cells) was “acutely increased”. For the same compound, the “[3H]thymidine uptake, increase above glucose treatment” value [1] was “increased”, the PDX-1 levels [3] was “increased” and the “NICD translocation to islet cell nuclei” value [4] was “caused NICD translocation to nuclei of practically all islet cells; also recorded: increased NICD in all islet cells”. The “increase in transcriptional activation of the UAS promoter (cleavage of Notch ΔE-GVP)” value ([5]; RIN cells transfected with Notch ΔE-GVP and MH100) was “at least 20 fold”.

With “R-JAG: Jagged-related peptide, Notch receptor binding fragment, CDDYYYGFGCNKFGRPRDD (SEQ ID NO:1)” the “trypan blue exclusion (cell death)” value ([2]; RIN cells treated with R-JAG) was “continued to exclude trypan blue”, the “insulin secretion, replenishment every two hours vs single treatment” value ([2]; RIN cells, 6 h) was “greater effect” and the “insulin release, R-JAG and Ex-4 together vs either alone” value ([2]; RIN cells) was “greater that either alone”. The total intracellular insulin ([2]; RIN cells) was “significant increase”, the “insulin release into the medium” value ([2]; RIN cells) was “elevated insulin release into the medium after 2.5 h had elapsed” and the “[3H]thymidine uptake, increase above glucose treatment” value [1] was 30%. For the same compound, the PDX-1 levels [6] was “increased”, the “IRS2 and insulin mRNA with replenishing every 2 h” value ([6]; RT-PCR) was “sustained elevations” and the “IRS-2 mRNA” value ([6]; RT-PCR) was “increased”. The “insulin mRNA levels” value ([6]; RT-PCR) was “increased”, the “time course of IRS2 and insulin mRNA after single treatment” value ([6]; RT-PCR 27 cycles, normalized to GAPDH) was “diminished after 8 h” and the IRS-2 protein levels ([6]; immunoblot) was “increased”. The “total Notch1 levels” value ([6]; immunoblot) was “increased”, the PDX-1 levels [3] was “increased” and the “increase in IRS-2 protein levels” value ([3]; mouse islets of Langerhans) was 1.5 fold. The intra-cellular insulin ([7]; R-JAG 10 μM, glucose 6 mM) was “increase”, the IRS-2 transcription ([7]; over 2 and 6 hours) was “increases” and the PDX-1 transcription ([7]; over 2 and 6 hours) was “increases”. For the same compound, the insulin transcription ([7]; over 2 and 6 hours) was “increases”.

With insulin the “nuclear NICD / NICD translocation” value ([8]; RIN cells treated with secretagogues) was “equivalent to control samples”.

`CC(C)C[C@H](NC(=O)[C@H](Cc1ccccc1)C[C@@H](O)[C@H](Cc1ccccc1)NC(=O)OC(C)(C)C)C(=O)N[C@@H](Cc1ccccc1)C(N)=O` [L-685,458] was tested, and the “effect on Ex-4-mediated translocation of NICD” value ([8]; RIN cells) was “inhibited”, the “effect on Ex-4-mediated increase in IRS2 levels” value ([3]; C57/BL6 mouse islets) was “diminished; also recorded: decreased” and the “effect on R-JAG-mediated increases in IRS2 levels” value ([3]; C57/BL6 mouse islets) was “prevented; also recorded: completely abrogated”. The “effect on Ex-4-activated γ-secretase cleavage / UAS promoter activation” value [5] was “greatly diminished; also recorded: abrogated; also recorded: blocked”.

`O=S(=O)(NCCNC/C=C/c1ccc(Br)cc1)c1cccc2cnccc12` [H89] was tested, and the “effect on glucose-mediated NICD translocation” value ([8]; RIN cells) was “prevented”, the “effect on Ex-4-mediated translocation of NICD” value ([8]; RIN cells) was “diminished” and the “effect on Ex-4-activated γ-secretase cleavage / UAS promoter activation” value [5] was “greatly diminished; also recorded: abrogated; also recorded: blocked”.

Exendin 9-39 was tested, and the “NICD nuclear localization with GLP-1 (50 nM) in conjunction with the GLP-1R antagonist” value ([8]; RIN cells, antagonist 500 nM) was “equivalent to glucose treatment alone”.
